Results taken from PMC7918738, “Microtubule Destabilizing Sulfonamides as an Alternative to Taxane-Based Chemotherapy” (International Journal of Molecular Sciences, 2021).

Legend:
[1] = system: tubulin (microtubular protein isolated from calf brain); assay: Tubulin Polymerization Inhibition (TPI) assay, turbidity; assay type: biochemical; conditions: 1.5 mg/mL microtubular protein; for TPI % 10 µM: compound at 10 µM
Method: The effect of all the synthesized compounds on the in vitro tubulin polymerization was evaluated at 10 µM. All the compounds that inhibited polymerization more than 30% were also assayed at 20 µM. IC50 values were calculated for those compounds inhibiting tubulin polymerization by at least 50% at 20 µM (Table 1 and Supplemental Figure S2).
Microtubular protein was isolated from calf brain according to the modified Shelanski method by two cycles of temperature-dependent assembly/disassembly and stored at −80 °C. Before each use, protein concentration was determined by the Bradford method taking BSA as standard.
Tubulin polymerization was monitored using a Helios α spectrophotometer by measuring the increase in turbidity at 450 nm, caused by a shift from 4 °C to 37 °C, which allows the in vitro microtubular protein to depolymerize and polymerize, respectively. The assay was carried out in quartz cuvettes containing 1.5 mg/mL microtubular protein and the ligand (except for control cuvette with only DMSO at the same concentration) in a mixture of 0.1 M MES buffer, 1 mM EGTA, 1 mM MgCl2, 1 mM β-ME, and 1.5 mM GTP at pH 6.7 (final volume 500 µL). Cuvettes were preincubated at 20 °C for 30 min, to allow ligand binding to tubulin, and subsequently cooled on ice for 10 min. Then, the experiment starts at 4 °C to establish the initial baseline. The assembly process was initiated by a temperature shift to 37 °C and the turbidity produced by tubulin polymerization can be measured by an absorbance increase. After reaching a stable plateau, the temperature was switched back to 4 °C to return to the initial absorption values (to confirm the reversible nature of the monitored process and to determine whether or not the microtubular tubular protein has stabilized). The difference in amplitude between the stable plateau and the initial baseline of the curves was taken as the degree of tubulin polymerization for each experiment. Comparison with control curves under identical conditions but without ligands yielded TPI as a percentage value. All compounds were tested at 10 µM concentration. Compounds that inhibited tubulin polymerization by at least 30% at 10 µM were tested at 20 µM. IC50 values were calculated for compounds that inhibit tubulin polymerization by more than 50% at 20 µM. Compounds were dissolved in DMSO, and the final solvent concentration never exceeded 4% (v/v), which has been reported not to interfere with the assembly process. All the measurements were carried out in at least two independent experiments using microtubular protein from different preparations.

[2] = system: MCF7 (breast adenocarcinoma); assay: Antiproliferative activity against MCF7 (XTT colorimetric method); assay type: cell-based; conditions: Homo sapiens, 72 h treatment
Method: (§1) The in vitro antiproliferative activity of MDS at 1 µM after 72 h treatments was evaluated by a colorimetric method against the human tumor cell lines HeLa (cervix epithelioid carcinoma) and MCF7 (breast adenocarcinoma). Compounds showing more than 40% inhibition at 1 µM in at least three independent assays were evaluated in a range of concentrations between 0.1 nM and 10 µM for the determination of half-maximal inhibitory concentrations (IC50) (Table 1). Paclitaxel, CA-4, and ABT-751 were used as references.
(§2) MCF7 (human breast carcinoma), SKOV-3 (human ovarian carcinoma), OVCAR-3 (human ovarian carcinoma), OVCAR-8 (human ovarian carcinoma), and HeLa (human cervical carcinoma) cell lines were cultured in Dulbecco’s Modified Eagle’s Medium (DMEM) (Gibco, Thermo Fischer Scientific) containing 10% (v/v) heat-inactivated fetal bovine serum (HIFBS) (Lonza-Cambrex, Karlskoga, Sweden), 2 mM L-glutamine (Lonza-Cambrex, Karlskoga, Sweden), 100 μg/mL streptomycin, and 100 IU/mL penicillin (Lonza-Cambrex) at 37 °C in humidified 95% air and 5% CO2. HT-29 (human colon carcinoma), IGROV-1 (human ovarian carcinoma), and A2780 (human ovarian carcinoma) cell lines were cultured in RPMI 1640 medium (Gibco, Thermo Fischer Scientific) supplemented with 10% HIFBS, 100 μg/mL streptomycin, and 100 IU/mL penicillin at 37 °C in humidified 95% air and 5% CO2 atmosphere. The presence of mycoplasma was routinely checked with MycoAlert kit (Lonza-Cambrex) and only mycoplasma-free cells were used in the experiments. Ovarian tumor cell lines were originally acquired from Dr Atanasio Pandiella from Centro de Investigación del Cáncer (CIC), Salamanca, Spain. HeLa, HT-29 and MCF7 tumor cell lines were provided by Dr Faustino Mollinedo from Centro de Investigaciones Biológicas Margarita Salas, Madrid, Spain.
(§3) MCF7, HeLa, and HT-29 cell proliferation, when treated with the corresponding compounds, were determined using the XTT (sodium 3’-[1(phenylaminocarbonyl)-3,4-tetrazolium]-bis(4-methoxy-6-nitro)-benzenesulfonic acid hydrate) cell proliferation kit (Roche Molecular Biochemicals, Mannheim, Germany). A freshly prepared mixture of XTT labeling reagent with 0.02% (v/v) PMS (N-methyl-dibenzopyrazine methyl sulfate) electron coupling reagent was added to cells (50 µL/well in 96-well plates, total volume of 160 µL/well). Cells were incubated under standard culture conditions for 4 h (MCF7 and HeLa) or 6 h (HT-29). The absorbance of the formazan product generated was measured at 450 nm using a multi-well plate reader. SKOV-3, OVCAR-3, OVCAR-8, IGROV-1, A-2780 cell proliferation, when treated with the corresponding compound, were determined using MTT (3-(4,5-dimethylthiazol-2-yl)-2,5-diphenyl-2H-tetrazolium bromide) (Sigma-Aldrich, St. Louis, MO, USA). MTT in Phosphate Buffer Saline (PBS) (5 mg/ml) was added to cells (110 µL/well in 24-well plates, total volume of 1110 µL/well). After 1 hour of incubation, the medium was aspirated, and formazan violet crystals were dissolved in dimethyl sulfoxide (DMSO) (500 µL/well). Absorbance was measured at 570 nm in a plate reader (Ultra Evolution, Tecan, Männedorf, Suiza). To determine cell viability, cells in exponential growth phase were seeded (100 µL/well in 96-well plates and 1000 µL/well in 24-well plates) with appropriate cell line concentration (1.5·10^4 cells/mL for MCF7 and HeLa, 3·10^4 cells/mL for HT-29, and 1·10^4 cells/mL for SKOV-3, OVCAR-3, OVCAR-8, IGROV-1, and A-2780) in complete RPMI 1640 or DMEM medium at 37°C and 5% CO2 atmosphere. After 24 h incubation, to allow cells to attach to the plates, all compounds were added at 1 µM concentration and the effect on the proliferation was evaluated 72 h post-treatment. Compounds showing antiproliferative effects at tested concentration were selected for IC50 calculation (50% inhibitory concentration with respect to the untreated controls) from 10^−5 to 10^−10 M concentration. Non-linear curves fitting the experimental data were carried out for each compound. […]

[3] = system: HeLa (cervix epithelioid carcinoma); assay: Antiproliferative activity against HeLa (XTT colorimetric method); assay type: cell-based; conditions: Homo sapiens, 72 h treatment
Method: as §1, §2, §3

IC50 [1] [nM] | IC50 [2] [nM] | IC50 [3] [nM] | Structure (SMILES) | TPI % 10 µM [1] [%]
12000 | 26 | 23 | COc1ccc(S(=O)(=O)N(C)c2cc(OC)c(OC)c(OC)c2)cc1N [Compound 42] | 41
> 20000 | 14 | 38 | CCN(c1cc(OC)c(OC)c(OC)c1)S(=O)(=O)c1ccc(OC)c(N)c1 [Compound 43] | 37
> 20000 | 8 | 60 | COc1ccc(S(=O)(=O)N(CC#N)c2cc(OC)c(OC)c(OC)c2)cc1N [Compound 44] | 5
3700 | 48 | 25 | COc1ccc(S(=O)(=O)N(Cc2ccccc2)c2cc(OC)c(OC)c(OC)c2)cc1N [Compound 45] | 75
> 20000 | 48 | 210 | CCOC(=O)CNc1cc(S(=O)(=O)N(C)c2cc(OC)c(OC)c(OC)c2)ccc1OC [Compound 46] | 13
> 20000 | > 1000 | > 1000 | CCOC(=O)CNc1cc(S(=O)(=O)N(CC(=O)OCC)c2cc(OC)c(OC)c(OC)c2)ccc1OC [Compound 47] | 0
> 20000 | 1190 | 440 | CNc1cc(S(=O)(=O)N(C)c2cc(OC)c(OC)c(OC)c2)ccc1OC [Compound 48a] | 2

Further lines, the compound ahead of its results:

Structure (SMILES) | IC50 [1] [nM] | IC50 [2] [nM] | IC50 [3] [nM] | TPI % 10 µM [1] [%]
COc1cc(NS(=O)(=O)c2ccc(N(C)C)cc2)cc(OC)c1OC [Compound 28] | > 20000 | 173 | 230 | 0
COc1cc(N(C)S(=O)(=O)c2ccc(N(C)C)cc2)cc(OC)c1OC [Compound 29a] | > 20000 | 30 | 63 | 40
CCN(c1cc(OC)c(OC)c(OC)c1)S(=O)(=O)c1ccc(N(C)C)cc1 [Compound 30] | > 20000 | 81 | 66 | 45
COc1cc(N(C(C)=O)S(=O)(=O)c2ccc(N(C)C)cc2)cc(OC)c1OC [Compound 31] | 14000 | 135 | 183 | 38
COc1cc(N(CC#N)S(=O)(=O)c2ccc(N(C)C)cc2)cc(OC)c1OC [Compound 32] | > 20000 | 120 | 55 | 17
CCOC(=O)CN(c1cc(OC)c(OC)c(OC)c1)S(=O)(=O)c1ccc(N(C)C)cc1 [Compound 33] | > 20000 | 91 | 99 | 14
COc1cc(N(CC(=O)O)S(=O)(=O)c2ccc(N(C)C)cc2)cc(OC)c1OC [Compound 34] | > 20000 | > 1000 | > 1000 | 6
COc1cc(N(Cc2ccccc2)S(=O)(=O)c2ccc(N(C)C)cc2)cc(OC)c1OC [Compound 35a] | 5300 | 100 | 330 | 72
COc1cc(N(C(=O)OCc2ccccc2)S(=O)(=O)c2ccc(N(C)C)cc2)cc(OC)c1OC [Compound 35b] | > 20000 | > 1000 | > 1000 | 0
COc1cc(NS(=O)(=O)c2ccc(NC=O)cc2)cc(OC)c1OC [Compound 36] | > 20000 | > 1000 | > 1000 | 0
CNc1ccc(S(=O)(=O)Nc2cc(OC)c(OC)c(OC)c2)cc1 [Compound 37] | > 20000 | > 1000 | 607 | 7
CNc1ccc(S(=O)(=O)N(C)c2cc(OC)c(OC)c(OC)c2)cc1 [Compound 38] | 10000 | 61 | 44 | 47
COc1ccc(S(=O)(=O)Nc2cc(OC)c(OC)c(OC)c2)cc1[N+](=O)[O-] [Compound 40] | > 20000 | > 1000 | > 1000 | 0
COc1ccc(S(=O)(=O)Nc2cc(OC)c(OC)c(OC)c2)cc1N [Compound 41] | > 20000 | 96 | 260 | 15
COc1ccc(S(=O)(=O)N(C)c2cc(OC)c(OC)c(OC)c2)cc1N(C)C [Compound 48b] | > 20000 | > 1000 | > 1000 | 0
